Target: STAT3 (Homo sapiens, UniProt P40763)
Assay: STAT3 HiBiT degradation assay in transfected A549 cells
Format: cell-based
Parameters: expressed in transfected cells; host or cells: A549
Conditions: A549, 24 h; read-out: STAT3 HiBiT A549 degradation 24 h: Average external-Abs DC50
In short: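 Degradation read as HiBiT-tagged STAT3 luminescence (Nano-Glo lytic reagent, 10 min, room temperature) following 24 h compound treatment of transfected A549 cells at 3-fold, 10 points. Percent remaining signal computed against controls and fitted with a four-parameter logistic; DC50 reported as letter bins (A <0.01 to D >1.0 µM).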

Chain of STAT3 (P40763 whole entry): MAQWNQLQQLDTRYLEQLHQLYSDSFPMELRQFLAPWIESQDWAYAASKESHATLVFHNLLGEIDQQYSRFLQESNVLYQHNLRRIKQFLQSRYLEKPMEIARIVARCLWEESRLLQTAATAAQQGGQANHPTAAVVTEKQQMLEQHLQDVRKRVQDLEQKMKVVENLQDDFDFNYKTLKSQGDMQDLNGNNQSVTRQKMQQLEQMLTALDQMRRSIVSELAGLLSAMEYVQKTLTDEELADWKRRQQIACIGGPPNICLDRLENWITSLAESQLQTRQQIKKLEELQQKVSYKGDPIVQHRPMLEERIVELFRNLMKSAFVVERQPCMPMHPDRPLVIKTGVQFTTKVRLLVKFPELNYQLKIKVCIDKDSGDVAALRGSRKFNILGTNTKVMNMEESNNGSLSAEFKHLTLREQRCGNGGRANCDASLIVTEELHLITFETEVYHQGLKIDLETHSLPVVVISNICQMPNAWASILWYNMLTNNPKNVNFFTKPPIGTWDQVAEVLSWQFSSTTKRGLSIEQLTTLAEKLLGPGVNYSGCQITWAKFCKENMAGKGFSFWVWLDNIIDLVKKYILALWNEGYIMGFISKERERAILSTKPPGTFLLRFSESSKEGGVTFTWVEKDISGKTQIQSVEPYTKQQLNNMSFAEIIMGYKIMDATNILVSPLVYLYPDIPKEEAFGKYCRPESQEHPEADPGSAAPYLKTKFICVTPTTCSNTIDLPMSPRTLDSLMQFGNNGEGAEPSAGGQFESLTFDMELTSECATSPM

SMILES	DC50 [nM]
CC(=O)N1CC[C@H]2CC[C@@H](C(=O)N[C@@H](CCC(N)=O)COc3cccc(CCCC(=O)N[C@H](C(=O)N4C[C@H](O)C[C@H]4C(=O)N[C@@H](C)c4ccc(-c5scnc5C)cc4)C(C)(C)C)c3F)N2C(=O)[C@@H](NC(=O)c2cc3cc(C(=O)P(=O)(O)O)ccc3[nH]2)C1 [Compound I-231, diammonium 2-[[(5S,8S,10aR)-3-acetyl-8-[[(2S)-4-carbamoyl-1-[2-fluoro-3-(3[[(2S)-1-[(2S,4R)-4-hydroxy-2-[[(1S)-1-[4-(4-methyl-1,3-thiazo1-5-yl)phenyl]ethyl]carbamoyl]pyrrolidin-1-yl]-3,3-dimethyl-1-oxobutan-2-yl]carbamoyl]propyl)phenoxy]butan-2-yl]carbamoyl]-6-oxo-octahydropyrrolo[1,2-a][1,5]diazocin-5-yl]carbamoyl]-1H-indole-5-carbonylphosphonate]	10 to 100
Cc1ncsc1-c1ccc([C@H](C)NC(=O)[C@@H]2C[C@@H](O)CN2C(=O)[C@@H](NC(=O)CCCCc2ccc(CCC[C@H](CCC(N)=O)NC(=O)[C@@H]3Cc4cccc5c4N3C(=O)[C@@H](NC(=O)c3cc4cc(C(=O)P(=O)(O)O)ccc4[nH]3)CC5)cc2)C(C)(C)C)cc1 [Compound I-237, diammonium 2-[[(2S,11S)-2-[[(3R)-1-carbamoyl-6-[4-(4-[[(2S)-1-[(2S,4R)-4-hydroxy-2-[[(1S)-1-[4-(4-methyl-1,3-thiazol-5-yl)phenyl]ethyl]carbamoyl]pyrrolidin-1-yl]-3,3-dimethyl-1-oxobutan-2-yl]carbamoyl]butyl)phenyl]hexan-3-yl]carbamoyl]-12-oxo-1-azatricyclo[6.4.1.0^[4,13]]trideca-4(13),5,7-trien-11-yl]carbamoyl]-1H-indole-5-carbonylphosphonate]	10 to 100
Cc1ncsc1-c1ccc(CNC(=O)[C@@H]2C[C@@H](O)CN2C(=O)[C@@H](NC(=O)CCCCCc2cccc(CC[C@H](CCC(N)=O)NC(=O)[C@@H]3Cc4cccc5c4N3C(=O)[C@@H](NC(=O)c3cc4cc(C(=O)P(=O)(O)O)ccc4[nH]3)CC5)c2)C(C)(C)C)cc1 [Compound I-224, diammonium 2-[[(2S,11S)-2-[[(3R)-1-carbamoyl-5-[3-[5-[[(2S)-1-[(2S,4R)-4-hydroxy-2-([[4-(4-methyl-1,3-thiazo1-5-yl)phenyl]methyl]carbamoyl)pyrrolidin-1-yl]-3,3-dimethyl-1-oxobutan-2-yl]carbamoyl]pentyl)phenyl]pentan-3-yl]carbamoyl]-12-oxo-1-azatricyclo[6.4.1.0^[4,13]]trideca-4(13),5,7-trien-11-yl]carbamoyl]-1H-indole-5-carbonylpho sphonate]	> 1000
Cc1ncsc1-c1ccc(CNC(=O)[C@@H]2C[C@@H](O)CN2C(=O)[C@@H](NC(=O)C2(CCCc3ccc(CO[C@H](C)[C@H](CCC(N)=O)NC(=O)[C@@H]4Cc5cccc6c5N4C(=O)[C@@H](NC(=O)c4cc5cc(C(=O)P(=O)(O)O)ccc5[nH]4)CC6)cc3)CC2)C(C)(C)C)cc1 [Compound I-223, diammonium 2-[[(2S,11S)-2-[[(3S,4R)-1-carbamoyl-4-([4-[3-(1-[[(2S)-1-[(2S,4R)-4-hydroxy-2-([[4-(4-methyl-1,3-thiazol-5-yl)phenyl]methyl]carbamoyl)pyrrolidin-1-yl]-3,3-dimethyl-1-oxobutan-2-yl]carbamoyl]cyclopropyl)propyl]phenyl]methoxy)pentan-3-yl]carbamoyl]-12-oxo-1-azatricyclo[6.4.1.0^[4,13]]trideca-4(13),5,7-trien-11-yl]carbamoyl]-1H-indole-5-carbonylphosphonate]	100 to 1000
C/C(=C\C(=O)N[C@H]1CCc2cccc3c2N(C1=O)[C@H](C(=O)N[C@@H](CCC(N)=O)[C@@H](C)OCc1ccc(CCCCC(=O)N[C@H](C(=O)N2C[C@H](O)C[C@H]2C(=O)N[C@@H](C)c2ccc(-c4scnc4C)cc2)C(C)(C)C)cc1)C3)c1cccc(C(F)(F)P(=O)(O)O)c1 [Compound I-142]	> 1000
CC(=O)N1CC[C@H]2CC[C@@H](C(=O)N[C@@H](CCC(=O)O)COc3cc(F)cc(CCCC(=O)N[C@H](C(=O)N4C[C@H](O)C[C@H]4C(=O)N[C@@H](C)c4ccc(-c5scnc5C)cc4)C(C)(C)C)c3Cl)N2C(=O)[C@@H](NC(=O)c2cc3cc(C(=O)P(=O)(O)O)ccc3[nH]2)C1 [Compound I-289]	< 10
Cc1ncsc1-c1ccc(CNC(=O)[C@@H]2C[C@@H](O)CN2C(=O)[C@@H](NC(=O)CCc2cccc3cc(CO[C@H](C)[C@H](CCC(N)=O)NC(=O)[C@@H]4Cc5cccc6c5N4C(=O)[C@@H](NC(=O)c4cc5cc(C(=O)P(=O)(O)O)ccc5[nH]4)CC6)ccc23)C(C)(C)C)cc1 [Compound I-136, diammonium 2-[[(2S,11S)-2-[[(3S,4R)-1-carbamoyl-4-[[5-(2-[[(2S)-1-[(2S,4R)-4-hydroxy-2-([[4-(4-methyl-1,3-thiazol-5-yl)phenyl]methyl]carbamoyl)pyrrolidin-1-yl]-3,3-dimethyl-1-oxobutan-2-yl]carbamoyl]ethyl)naphthalen-2-yl]methoxy]pentan-3-yl]carbamoyl]-12-oxo-1-azatricyclo[6.4.1.0^[4,13]]trideca-4(13),5,7-trien-11-yl]carbamoyl]-1H-indole-5-carbonylphosphonate]	> 1000
Cn1c(=O)n(C2CCC(=O)NC2=O)c2ccc(C3CC(CCCCC(=O)N4CC[C@H]5CC[C@@H](C(=O)N[C@@H](CCC(N)=O)C(=O)NC(c6ccccc6)c6ccccc6)N5C(=O)[C@@H](NC(=O)c5cc6cc(C(=O)P(=O)(O)O)ccc6[nH]5)C4)C3)cc21 (stereo partly drawn) [Compound I-208, 2-[[(5S,8S,10aR)-8-[[(1S)-3-carbamoyl-1-(diphenylmethylcarbamoyl)propyl]carbamoyl]-3-(5-[3-[1-(2,6-dioxopiperidin-3-yl)-3-methyl-2-oxo-1,3-benzodiazol-5-yl]cyclobutyl]pentanoyl)-6-oxo-octahydropyrrolo[1,2-a][1,5]diazocin-5-yl]carbamoyl]-1H-indole-5-carbonylphosphonic acid]	100 to 1000
CC(=O)N1CC[C@H]2CC[C@@H](C(=O)N[C@@H](CCC(N)=O)C(=O)NCCCCCCCC(=O)N[C@H](C(=O)N3C[C@H](O)C[C@H]3C(=O)NCc3ccc(-c4scnc4C)cc3)C(C)(C)C)N2C(=O)[C@@H](NC(=O)c2cc3cc(C(=O)P(=O)(O)O)ccc3[nH]2)C1 [Compound I-172, 2-[[(5S,8S,10aR)-3-acetyl-8-[[(1S)-3-carbamoyl-1-[(7-[[(2S)-1-[(2S,4R)-4-hydroxy-2-([[4-(4-methyl-1,3-thiazol-5-yl)phenyl]methyl]carbamoyl)pyrrolidin-1-yl]-3,3-dimethyl-1-oxobutan-2-yl]carbamoyl]heptyl)carbamoyl]propyl]carbamoyl]-6-oxo-octahydropyrrolo[1,2-a][1,5]diazocin-5-yl]carbamoyl]-1H-indole-5-carbonylphosphonic acid]	> 1000
Cc1ncsc1-c1ccc(CNC(=O)[C@@H]2C[C@@H](O)CN2C(=O)[C@@H](NC(=O)CCCCCCCOC[C@H](CCC(N)=O)NC(=O)[C@@H]2Cc3cccc4c3N2C(=O)[C@@H](NC(=O)c2cc3cc(C(=O)P(=O)(O)O)ccc3[nH]2)CC4)C(C)(C)C)cc1 [Compound I-155]	> 1000
Cn1c(=O)n(C2CCC(=O)NC2=O)c2ccc(CCCCCCc3cc4c5c(c3)C[C@@H](C(=O)N[C@@H](CCC(N)=O)C(=O)NC(c3ccccc3)c3ccccc3)N5C(=O)[C@@H](NC(=O)c3cc5cc(C(=O)P(=O)(O)O)ccc5[nH]3)CC4)cc21 (stereo partly drawn) [Compound I-229, 2-[[(2S,11S)-2-[[(1S)-3-carbamoyl-1-(diphenylmethylcarbamoyl)propyl]carbamoyl]-6-[6-[1-(2,6-dioxopiperidin-3-yl)-3-methyl-2-oxo-1,3-benzodiazol-5-yl]hexyl]-12-oxo-1-azatricyclo[6.4.1.0 [4,13]]-trideca-4(13),5,7-trien-11-yl]carbamoyl]-1H-indole-5-carbonylphosphonic acid]	10 to 100
C[C@@H](OCc1ccccc1)[C@H](CCC(N)=O)NC(=O)[C@@H]1CC[C@@H]2CCN(C(=O)CCCCCCc3ccc4c(c3)n(C)c(=O)n4C3CCC(=O)NC3=O)C[C@H](NC(=O)c3cc4cc(C(=O)P(=O)(O)O)ccc4[nH]3)C(=O)N21 (stereo partly drawn) [Compound I-184, 2-[[(5S8S,10aR)-8-[[(3S,4R)-4-(benzyloxy)-1-carbamoylpentan-3-yl]carbamoyl]-3-[7-[1-(2,6-dioxopiperidin-3-yl)-3-methyl-2-oxo-1,3-benzodiazol-5-yl]heptanoyl]-6-oxo-octahydropyrrolo[1,2-a][1,5]diazocin-5-yl]carbamoyl]-1H-indole-5-carbonylphosphonic acid]	100 to 1000
Cn1c(=O)n(C2CCC(=O)NC2=O)c2ccc(CCCCOc3ccc4c5c3CC[C@H](NC(=O)c3cc6cc(C(=O)P(=O)(O)O)ccc6[nH]3)C(=O)N5[C@H](C(=O)N[C@@H](CCC(N)=O)C(=O)NC(c3ccccc3)c3ccccc3)C4)cc21 (stereo partly drawn) [Compound I-270, 2-[[(2S,11S)-2-[[(1S)-3-carbamoyl-1-(diphenylmethylcarbamoyl)propyl]carbamoyl]-7-[4-[1-(2,6-dioxopiperidin-3-yl)-3-methyl-2-oxo-1,3-benzodiazol-5-yl]butoxy]-12-oxo-1-azatricyclo[6.4.1.0^[4,13]]trideca-4(13),5,7-trien-11-yl]carbamoyl]-1H-indole-5-carbonylphosphonic acid]	100 to 1000
Cc1ncsc1-c1ccc(CNC(=O)[C@@H]2C[C@@H](O)CN2C(=O)[C@@H](NC(=O)CCCCCc2cccc(CNC(=O)[C@H](CCC(N)=O)NC(=O)[C@@H]3Cc4cccc5c4N3C(=O)[C@@H](NC(=O)c3cc4cc(C(=O)P(=O)(O)O)ccc4[nH]3)CC5)c2)C(C)(C)C)cc1 [Compound I-222, 2-[[(2S,11S)-2-[[(1S)-3-carbamoyl-1--([[3-(5-[[(2S)-1-[(2S,4R)-4-hydroxy-2-([[4-(4-methyl-1,3-thiazol-5-yl)phenyl]methyl]carbamoyl)pyrrolidin-1-yl]-3,3-dimethyl-1-oxobutan-2-yl]carbamoyl]pentyl)phenyl]methyl]carbamoyl)propyl]carbamoyl]-12-oxo-1-azatricyclo[6.4.1.0^[4,13]]trideca-4(13),5,7-trien-11-yl]carbamoyl]-1H-indole-5-carbonylphosphonic acid]	> 1000

Reference: patent US12077555B2, “STAT degraders and uses thereof” (Kymera Therapeutics, Inc., priority 2019, dated 2024)
